What was measured:
3T3-L1 cells [1] = assay: Lipid droplet accumulation in 3T3-L1 adipocytes (3D imaging, HCS LipidTOX Red neutral lipid stain); assay type: cell-based, mouse; conditions: 1 μM peptide, 24 hours
Procedure: (§1) FIGS. 3A to 3E show the increased lipid deposition induced by Aβ42.
Scale bar: 20 μm. […] FIGS. 6H and 6I show the HDL/T-Chol (FIG. 6H) and glucose (FIG. 6I) levels in plasma of APP/PS1 mice with or without thyroxine and pioglitazone. ** p<0.01. […] Tubulin, GAPDH (glyceraldehyde-3-phosphate dehydrogenase), and ponceau S: internal controls, respectively.
The 3T3-L1 pre-adipocytes ([…], ATCC CL-173) were cultured in Dulbecco's modified Eagle medium (DMEM) (Invitrogen, USA). Cells were grown at 37° C. in a 5% CO2 humid atmosphere. The differentiation of 3T3-L1 cells into adipocyte-like cells was performed as follows. A confluence of 70% of 3T3-L1 cells was induced with MDI induction medium (containing 500 μM 3-isobutyl-1-methylxanthine (IBMX), 1 μg/mL insulin, and 1 μM dexamethasone) for 3 days, followed by changing the medium to differentiation medium (10% fetal bovine serum (FBS) in DMEM). The differentiation medium was refreshed every two days. Full differentiation was achieved by day 8.
To exclude the possibility that the visceral adiposity was a secondary event caused by factors released from other tissues/organs, 3T3-L1 adipocytes were incubated with Aβ40 or Aβ42 to determine whether and which Aβ peptides to be potent in causing lipid accumulation in adipocytes.

[2] = system: dementia in human population; assay: Population-based retrospective matched cohort analysis of dementia risk (Taiwan NHIRD database); assay type: in vivo
Procedure: To assess the potential for applying the combined drugs identified in Example 5 for therapeutic application in patients with dementia, a long-term follow-up retrospective analysis of human efficacy predictions was conducted by using National Health Research Institutes Database (NHRID) of Taiwan. Specifically, a […] matched cohort study was conducted to assess the effectiveness of the combined use of thyroid hormones and thiazolidinediones (TZDs) in reducing the risk of dementia, based on a dataset tracked 10,535 subjects with these two drugs for 10 years.

[3] = system: Aβ42-treated 3T3-L1 cells; assay: UCP1 and PPARγ2 levels in MDI-induced, Aβ42-treated 3T3-L1 cells (screening of combination drugs); conditions: MDI-induced differentiated 3T3-L1 adipocytes treated with Aβ42 (FIG. 5)
wild-type mice = assay: Aβ42 intraperitoneal injection into wild-type mice (lipid deposition); assay type: in vivo, mouse; conditions: WT mice, Aβ42 30 μg intraperitoneally three times at an interval of 3 days; 7 days after last injection
Procedure: as §1
To assess whether the Aβ peptides were involved in lipid deposition in adipose tissues, Aβ42 (30 μg) was injected intraperitoneally into WT mice three times at an interval of 3 days.

3T3-L1 cells [4] = assay: ApoE gene expression and LXR signaling protein levels in 3T3-L1 cells treated with Aβ peptides; assay type: cell-based, mouse
Procedure: FIGS. 4E and 4H show the result of Western blot of LXR signaling proteins in gWAT (FIG. 4E) or BAT (FIG. 4H) of wild-type (WT) mice and APP/PS1 (AD) mice (n=2). […] ABCA1: ATP binding cassette subfamily A member 1. PPAγ: peroxisome proliferator-activated receptor gamma. Actin, GAPDH (glyceraldehyde-3-phosphate dehydrogenase) and tubulin: internal controls, respectively.
The 3T3-L1 pre-adipocytes ([…], ATCC CL-173) were cultured in Dulbecco's modified Eagle medium (DMEM) (Invitrogen, USA). Cells were grown at 37° C. in a 5% CO2 humid atmosphere. The differentiation of 3T3-L1 cells into adipocyte-like cells was performed as follows. […]
Total RNAs from brain tissues or culture cells were extracted using the illustra RNAspin Mini RNA Isolation Kit (GE Healthcare Life Sciences) for reverse transcription with the High-Capacity cDNA Reverse Transcription Kits (ABI Applied Biosystems, USA) according to the manufacturer's instructions. The quantitative real-time reverse transcription-PCR analysis was performed using the Fast SYBR Green Master Mix (ABI Applied Biosystems, USA). Results were determined using respective standard curves calculations. […]

Compound | lipid droplet accumulation in adipocytes (3T3-L1 cells [1]) | Incidence rate of dementia (per 1,000-person-year) ([2]; Group 3: TZD + T3 vs T3 only, matched cohort) | reduction of the risk of getting dementia ([2]; retrospective analysis, 10 years follow-up) [%] | PPARγ2 level [3] | UCP1 level [3] | body weight and gWAT mass (wild-type mice) | protein levels of LXRα, PPARγ, ABCA1 and caveolin-1 (3T3-L1 cells [4]; Western blot) | apoE gene expression (3T3-L1 cells [4]; qRT-PCR)
Aβ40: amyloid β peptide Aβ40, comparison peptide | not |  |  |  |  |  |  | 
N[C@@H](Cc1cc(I)c(Oc2ccc(O)c(I)c2)c(I)c1)C(=O)O [T3 only, triiodothyronine] |  | 10.17 per 1,000-person-year | 21.7 |  |  |  |  | 
Aβ42: amyloid β peptide Aβ42, used as inducer of lipid deposition | evidently stimulated |  |  | increased | decreased | rapidly increased | markedly decreased | markedly upregulated

From US20250360215A1, “PHARMACEUTICAL COMBINATIONS AND METHODS FOR PREVENTING OR TREATING NEURODEGENERATIVE DISEASES” (National Health Research Institutes, priority 2022, published 2025)
